{
  "source": "the Kinase Knowledgebase extract (Sharma et al. 2016)",
  "data": [
    {"molecular_target": "EGFR (human) (UniProt P00533)", "sequence (P00533 whole entry, looked up)": "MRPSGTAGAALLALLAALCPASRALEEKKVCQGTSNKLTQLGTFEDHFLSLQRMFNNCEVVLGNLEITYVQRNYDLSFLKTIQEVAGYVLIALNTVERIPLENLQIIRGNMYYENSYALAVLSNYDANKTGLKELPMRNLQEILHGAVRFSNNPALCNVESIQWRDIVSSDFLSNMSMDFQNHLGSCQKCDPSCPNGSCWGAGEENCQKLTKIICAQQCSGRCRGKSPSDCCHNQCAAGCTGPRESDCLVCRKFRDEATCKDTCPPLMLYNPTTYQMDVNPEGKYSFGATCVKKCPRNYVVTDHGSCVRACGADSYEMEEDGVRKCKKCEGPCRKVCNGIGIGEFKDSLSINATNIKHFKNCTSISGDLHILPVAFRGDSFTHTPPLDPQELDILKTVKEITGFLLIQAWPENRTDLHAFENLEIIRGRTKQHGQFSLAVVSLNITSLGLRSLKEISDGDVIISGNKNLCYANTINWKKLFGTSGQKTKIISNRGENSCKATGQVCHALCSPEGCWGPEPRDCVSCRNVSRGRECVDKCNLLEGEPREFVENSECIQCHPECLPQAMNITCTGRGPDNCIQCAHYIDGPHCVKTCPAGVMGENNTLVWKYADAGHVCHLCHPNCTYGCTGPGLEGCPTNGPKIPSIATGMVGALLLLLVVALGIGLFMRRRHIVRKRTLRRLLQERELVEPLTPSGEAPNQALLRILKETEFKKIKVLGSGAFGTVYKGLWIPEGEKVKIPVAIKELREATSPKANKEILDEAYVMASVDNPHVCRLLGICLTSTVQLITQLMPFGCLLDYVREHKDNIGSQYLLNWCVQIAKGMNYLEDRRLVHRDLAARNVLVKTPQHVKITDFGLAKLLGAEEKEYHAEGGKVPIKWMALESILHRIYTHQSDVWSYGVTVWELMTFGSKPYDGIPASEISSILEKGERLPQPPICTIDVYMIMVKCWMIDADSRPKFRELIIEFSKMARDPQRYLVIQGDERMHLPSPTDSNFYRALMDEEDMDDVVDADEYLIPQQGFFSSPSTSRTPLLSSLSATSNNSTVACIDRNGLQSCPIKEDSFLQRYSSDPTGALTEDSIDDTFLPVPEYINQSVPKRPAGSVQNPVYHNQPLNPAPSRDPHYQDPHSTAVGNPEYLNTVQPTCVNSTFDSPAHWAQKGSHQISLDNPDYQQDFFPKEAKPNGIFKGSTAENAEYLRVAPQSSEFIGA", "details": "bt474", "units": {"IC50": "nM"}, "values": [
      {"smiles": "O=C(/C=C/CN1CCC1CO)Nc1cc2c(Nc3ccc(F)c(Cl)c3)ncnc2cc1OCC1CC1", "note": "(centres undefined)", "IC50": 9.5},
      {"smiles": "O=C(/C=C/CN1CCC1CO)Nc1cc2c(Nc3ccc(F)c(Cl)c3)ncnc2cc1O[C@H]1CCOC1", "note": "(some centres undefined)", "IC50": 3.9},
      {"smiles": "COC[C@@H]1CCN1C/C=C/C(=O)Nc1cc2c(Nc3ccc(F)c(Cl)c3)ncnc2cc1OC", "IC50": 21.5},
      {"smiles": "COc1cc2ncnc(Nc3ccc(F)c(Cl)c3)c2cc1NC(=O)/C=C/CN1CCC1CO", "note": "(centres undefined)", "IC50": 2.3},
      {"smiles": "COCC1CCN1C/C=C/C(=O)Nc1cc2c(Nc3ccc(F)c(Cl)c3)ncnc2cc1O[C@H]1CCOC1", "note": "(some centres undefined)", "IC50": 2.9},
      {"smiles": "O=C(/C=C/CN1CCC1CO)Nc1cc2c(Nc3ccc(F)c(Cl)c3)ncnc2cc1OC[C@H]1[C@@H]2COC[C@@H]21", "note": "(some centres undefined)", "IC50": 10.8},
      {"smiles": "O=C(/C=C/CN1CCC1CO)Nc1cc2c(Nc3ccc(F)c(Cl)c3)ncnc2cc1OC[C@@H]1COCCO1", "note": "(some centres undefined)", "IC50": 17.5},
      {"smiles": "COC[C@H]1CCN1C/C=C/C(=O)Nc1cc2c(Nc3ccc(F)c(Cl)c3)ncnc2cc1OCC1CC1", "IC50": 6.6},
      {"smiles": "COC[C@@H]1CCN1C/C=C/C(=O)Nc1cc2c(Nc3ccc(F)c(Cl)c3)ncnc2cc1OCC1CC1", "IC50": 21.7},
      {"smiles": "COCCOc1cc2ncnc(Nc3ccc(F)c(Cl)c3)c2cc1NC(=O)/C=C/CN1CC[C@@H]1COC", "IC50": 1.4},
      {"smiles": "O=C(/C=C/CN1CCC1CO)Nc1cc2c(Nc3ccc(F)c(Cl)c3)ncnc2cc1OC[C@H]1COCCO1", "note": "(some centres undefined)", "IC50": 2.7},
      {"smiles": "COCCOc1cc2ncnc(Nc3ccc(F)c(Cl)c3)c2cc1NC(=O)/C=C/CN1CC[C@H]1COC", "IC50": 5.8},
      {"smiles": "COC[C@H]1CCN1C/C=C/C(=O)Nc1cc2c(Nc3ccc(F)c(Cl)c3)ncnc2cc1OC", "IC50": 1.6},
      {"smiles": "CCOc1cc2ncnc(Nc3ccc(F)c(Cl)c3)c2cc1NC(=O)/C=C/CN1CC[C@@H]1COC", "IC50": 2}
    ]}
  ]
}
